Assay results as given in US20110086848A1, “Agrochemical Compositions Comprising Alkyl Polypropylene Glycol Polyethylene Glycol” (Bayer CropScience AG, priority 2009, published 2011).
Like-named read-outs stand apart in the source and are kept apart here.

Test: physchem
Type: physicochemical
Protocol: In the context of the present invention, the term “water-soluble agrochemically active compound” is generally understood as meaning an insecticidally and/or acaricidally active compound (i.e. an active compound that controls insects and/or Acarina) which has (at 20° C.) a solubility of ≧10 mg/l in water. Compounds A and B meet this requirement.

SMILES	solubility (20 °C, water) [µg/mL]	solubility (at 20° C., stated as meeting the definition of water-soluble, read-out: solubility in water) [µg/mL]
O=C1C=C(N(Cc2ccc(Cl)nc2)CC(F)F)CO1 [Compound B]	≥ 10	–
C/C(=N\C#N)N(Cc1ccc(Cl)nc1)CC(F)F [Compound A]	–	≥ 10
